{"source": "paper PMC9127185", "about": "“A Pyridazinone Compound for Effectively Treating Non-alcoholic Steatohepatitis by Targeting THRβ” (Frontiers in Chemistry, 2022)", "key": {"[1]": {"experiment": "Stability of YWS01125 in mouse plasma under storage conditions", "type": "in vitro ADME", "details": "for Accuracy (RE) after storage / Concentration found after storage, Mean ± SD: mouse plasma", "description": "The validation was carried out by the US Food and Drug Administration bioanalytical method guidance ([Bioanalytical Method Validation, 2018]; [US Food and Drug Administration, 2018]; [Chen et al., 2019]), namely evaluating selectivity, linearity, accuracy and precision, recovery, matrix effect, and stability. Selectivity was assessed by contrasting the normal blank plasma samples' and analyst plasma samples' chromatograms from six different specimens. Linearity was appraised by different concentrations of the standard medicated plasma samples for 3 days continuously. The peak area was recorded ([Booth et al., 2015]), and weighted (1/x^2) least-squares analysis was used to acquire the standard curve equations. The accuracy and precision were assessed by three different (low, medium, and high) QC samples by diluting with acetonitrile; each concentration had six samples and was continuously accessed for 3 days, and the accuracy, intra-day precision, and inter-day precision were obtained. Recovery was evaluated by comparing the peak area of protein precipitated with acetonitrile first and finally using it to calculate the recovery of the analyst. The matrix effect was measured by comparing the analyst peak area with the saline solution samples and QC samples at the three concentrations. The stability was assessed by defining the three QC levels in several different storage conditions: at room temperature for 6 h, injector stability at 15 °C for a whole night, and after three freeze–thaw cycles.\nThis experiment investigated the stability of YWS01125 in the mouse plasma at different temperature conditions, namely the auto sampler (15°C) for 12 h of injector stability, room temperature for 6 h, and three freeze–thaw cycles. […] The measured results of YWS01125 are all within the acceptable limits during the entire process (Table 3)."}, "[2]": {"experiment": "Pharmacokinetic study after oral administration, plasma by UPLC-MS/MS", "type": "in vivo, C57BL/6J mice", "details": "for Cmax / Tmax / CL/F / MRT last / MRT inf / half-life: C57BL/6J, mouse, mice plasma; for CL/F: read-out: CLz/F; for MRT last: read-out: MRT (0-t) (converted); for MRT inf: read-out: MRT (0-∞) (converted); for half-life: read-out: t1/2z", "description": "Sorvall Biofuge Stratos high-speed refrigerated centrifuge was bought from the Thermo Fisher Scientific Co. Ltd. (Shanghai, China); EL204 electronic balance was selected from Shanghai Mettler-Toledo Instruments Co. Ltd. (Shanghai, China); IKA Vortex Genius 3 Vortex Mixer was purchased from Aika Instrument Equipment Co. Ltd. (Guangzhou, China); and the test was carried out using an AB SCIEX™ 5500 Q-Trap® mass spectrometer (Applied Biosystems, United States) coupled to a Shimadzu Prominence UPLC (ultra-performance liquid chromatography, Shimadzu, United States) system. It was equipped with a binary pump, a degasser, an auto sampler, and an automatic thermostatic column compartment. The column was utilized from Agela Technologies UHP Innoval C18 (2.1 × 50 mm, 1.9 μm; Agela Technologies; Made in China). The whole process with a gradient elution program is as follows: 0.00–0.50 min, 5% B; 0.50–1.50 min, 90% B; 1.50–3.00 min, 90% B; 3.00–3.10 min, 15% B; and 3.10–5.00 min, 15% B. The mobile phase was made up of 0.10% formic acid in water (A) and acetonitrile (B), and the velocity of flow was 0.50 ml/min. The auto sampler and column temperature were set at 15 and 40°C, respectively. The injection volume was 1 μl. The Q-Trap mass spectrometer was operated with positive electrospray ionization source (ESI) and scanned using the multiple-reaction monitoring (MRM) mode. The Analyst® software version 1.6.3 (Applied Bio-systems, AB SCIEX™, United States) was used to control the UPLC-MS/MS system. The best of the YWS01125 parameters was curtain gas, 35 psi; collision gas, medium; ion spray voltage, 5500 V; temperature, 500°C; ion source gas 1, 50 psi; and ion source gas 2, 50 psi. The quantitative analysis ion pairs of YWS01125 and MGL-3196 (IS) were m/z 446.2 → 375 and m/z 435.2 → 182, individually. The suitable collision energy (CE) of YWS01125 and IS was 42 and 50 eV, respectively, and the decluttering voltage (DP) was 160 and 180 V, respectively.\nThe frozen mice plasma samples and tissue homogenates were thawed at room temperature, vortexed for 1 min, then taken out in 10-μl aliquots in a 1.50-ml centrifuge tube, and this was then mixed with 1 μl of standard solution and 50 μl of internal standard (IS) solution, which was then dissolved and diluted with acetonitrile. Subsequently, it was vortexed for 3 min and at 14,000 rpm centrifugation for 5 min. The adopted 1 μl of the supernatant was used for sample injection analysis.\nA total of 18 C57BL/6J mice were given YWS01125 by oral administration with a dose of 10, 20, and 40 mg/kg, respectively ([Lally et al., 2019]; [Kelly et al., 2014]; [Motamed et al., 2017]) (with the concentration of drug administration selected according to the study by Kelly et al.). The blood samples of 20 μl were collected and placed in heparinized tubes from the ophthalmic venous plexus before and at 0.03, 0.08, 0.16, 0.25, 0.50, 1, 2, 4, 6, 8, 12, and 24 h. The samples were immediately centrifuged at 14,000 rpm for 10 min at 4°C. The plasma was separated and stored below −80°C until UHPLC-MS/MS analysis.\nThe validated method was applied to the pharmacokinetic study of YWS01125 in normal C57BL/6J mice after oral administration, at doses of 10, 20, and 40 mg/kg suspensions with sodium carboxymethyl cellulose (CMCNa). YWS01125 was measured in the plasma until the last blood collection time (24 h). The main pharmacokinetic parameters of YWS01125 were processed by a no compartmental model using the DAS 2.0 software package, and the pharmacokinetic parameters are summarized in Table 4."}, "[3]": {"details": "injector stability (15°C, 12 h), added 10 ng/ml"}, "[4]": {"details": "injector stability (15°C, 12 h), added 50 ng/ml"}, "[5]": {"details": "injector stability (15°C, 12 h), added 300 ng/ml"}, "[6]": {"details": "room temperature for 6 h, added 10 ng/ml"}, "[7]": {"details": "room temperature for 6 h, added 300 ng/ml"}, "[8]": {"details": "three freeze–thaw cycles, added 10 ng/ml"}, "[9]": {"details": "three freeze–thaw cycles, added 50 ng/ml"}, "[10]": {"details": "three freeze–thaw cycles, added 300 ng/ml"}}, "note": "Where two headings read alike, the source gives them in different places.", "data": [{"smiles": "N#Cc1cn(-c2cc(Cl)c(Oc3cc(C4CCC4)c(=O)[nH]n3)c(Cl)c2)c(=O)[nH]c1=O", "note": "[YWS01125, 1-(3,5-dichloro-4-((5-cyclobutyl-6-oxo-1,6-dihydropyridazin-3-yl)oxy)phenyl)-2,4-dioxo-1,2,3,4-tetrahydropyrimidine-5-carbonitrile]", "values": [{"measurement": "Stability in mouse plasma (in words)", "setting": "[1]; auto sampler 15°C 12 h, room temperature 6 h, three freeze–thaw cycles", "value": "maintains stability"}, {"measurement": "Accuracy (RE) after storage", "setting": "[1]; [3]", "value": 5.00, "unit": "%"}, {"measurement": "Concentration found after storage, Mean ± SD", "setting": "[1]; [3]", "value": "10.67 ± 0.52", "unit": "ng/mL"}, {"measurement": "Accuracy (RE) after storage", "setting": "[1]; [4]", "value": "−4.68", "unit": "%"}, {"measurement": "Concentration found after storage, Mean ± SD", "setting": "[1]; [4]", "value": "49.91 ± 2.15", "unit": "ng/mL"}, {"measurement": "Accuracy (RE) after storage", "setting": "[1]; [5]", "value": "−1.60", "unit": "%"}, {"measurement": "Concentration found after storage, Mean ± SD", "setting": "[1]; [5]", "value": "295.17 ± 29.36", "unit": "ng/mL"}, {"measurement": "Accuracy (RE) after storage", "setting": "[1]; [6]", "value": 1.20, "unit": "%"}, {"measurement": "Concentration found after storage, Mean ± SD", "setting": "[1]; [6]", "value": "10.29 ± 0.82", "unit": "ng/mL"}, {"measurement": "Concentration found after storage, Mean ± SD", "setting": "[1]; room temperature for 6 h, added 50 ng/ml", "value": "52.62 ± 1.73", "unit": "ng/mL"}, {"measurement": "Accuracy (RE) after storage", "setting": "[1]; [7]", "value": 3.88, "unit": "%"}, {"measurement": "Concentration found after storage, Mean ± SD", "setting": "[1]; [7]", "value": "299.33 ± 10.07", "unit": "ng/mL"}, {"measurement": "Accuracy (RE) after storage", "setting": "[1]; [8]", "value": "−1.80", "unit": "%"}, {"measurement": "Concentration found after storage, Mean ± SD", "setting": "[1]; [8]", "value": "9.45 ± 0.57", "unit": "ng/mL"}, {"measurement": "Accuracy (RE) after storage", "setting": "[1]; [9]", "value": "−2.20", "unit": "%"}, {"measurement": "Concentration found after storage, Mean ± SD", "setting": "[1]; [9]", "value": "47.80 ± 3.96", "unit": "ng/mL"}, {"measurement": "Accuracy (RE) after storage", "setting": "[1]; [10]", "value": "−2.66", "unit": "%"}, {"measurement": "Concentration found after storage, Mean ± SD", "setting": "[1]; [10]", "value": "289.17 ± 12.77", "unit": "ng/mL"}, {"measurement": "Cmax", "setting": "[2]; oral 10 mg/kg", "value": "188 ± 30", "unit": "ng/mL"}, {"measurement": "Tmax", "setting": "[2]; oral 10 mg/kg", "value": 0.917, "unit": "h"}, {"measurement": "CL/F", "setting": "[2]; oral 10 mg/kg", "value": "160 ± 20", "unit": "mL/min/kg"}, {"measurement": "MRT last", "setting": "[2]; oral 10 mg/kg", "value": 3.42, "unit": "h"}, {"measurement": "MRT inf", "setting": "[2]; oral 10 mg/kg", "value": 4.04, "unit": "h"}, {"measurement": "half-life", "setting": "[2]; oral 10 mg/kg", "value": "3.15 ± 1.59", "unit": "h"}, {"measurement": "Cmax", "setting": "[2]; oral 20 mg/kg", "value": "293 ± 60.4", "unit": "ng/mL"}, {"measurement": "Tmax", "setting": "[2]; oral 20 mg/kg", "value": 1, "unit": "h"}, {"measurement": "CL/F", "setting": "[2]; oral 20 mg/kg", "value": "250 ± 280", "unit": "mL/min/kg"}, {"measurement": "MRT last", "setting": "[2]; oral 20 mg/kg", "value": 3.06, "unit": "h"}, {"measurement": "MRT inf", "setting": "[2]; oral 20 mg/kg", "value": 3.4, "unit": "h"}, {"measurement": "half-life", "setting": "[2]; oral 20 mg/kg", "value": "2.54 ± 0.633", "unit": "h"}, {"measurement": "Cmax", "setting": "[2]; oral 40 mg/kg", "value": "382 ± 30.6", "unit": "ng/mL"}, {"measurement": "Tmax", "setting": "[2]; oral 40 mg/kg", "value": 0.917, "unit": "h"}, {"measurement": "CL/F", "setting": "[2]; oral 40 mg/kg", "value": "280 ± 50", "unit": "mL/min/kg"}, {"measurement": "MRT last", "setting": "[2]; oral 40 mg/kg", "value": 4.57, "unit": "h"}, {"measurement": "MRT inf", "setting": "[2]; oral 40 mg/kg", "value": 4.94, "unit": "h"}, {"measurement": "half-life", "setting": "[2]; oral 40 mg/kg", "value": "3.03 ± 1.07", "unit": "h"}, {"measurement": "Time of highest concentration in the blood", "setting": "[2]; mice, oral", "value": 1, "unit": "h"}]}]}
